According to patent US11331364B2, “Use for JNK inhibitor molecules for treatment of various diseases” (Xigen Inflammation Ltd., priority 2014, dated 2022):
Square brackets hold non-standard residues; d marks the D form. Peptide text beside a SMILES is read from it.

Experiments:
[1] = Stability (half-life) in human serum, UPLC-MS; settings: human serum (10 and 50% in PBS; FIG. 5: 50%), 0.1 mM peptide
Description: The experiment was performed as described by Tugyi et al. (Proc Natl Acad Sci USA, 2005, 413-418). The remaining intact peptide was quantified by UPLC-MS.

[2] = biological target: hJNK3 (Homo sapiens, UniProt P53779); test: hJNK3 | IC50; settings: read-out: hJNK3 | IC50
[3] = system: human whole blood; test: CD3/CD28-induced TNF-α release in human whole blood, 3 days; assay type: cell-based; settings: 1, 3, 10 μM, antibodies 2 μg/mL
Description: FIG. 24 JNK inhibition and TNF-α release in human whole blood. The JNK inhibitor with SEQ ID NO: 172 was added at three different concentrations, namely 1, 3 and 10 μM 1 h before whole blood stimulation with CD3+/−CD28 antibodies (2 μg/mL) for 3 days.
Whole blood from human healthy volunteers was collected using a venipuncture connected to a pre-labeled vacuum tube containing sodium citrate. Tubes are gently mixed by inversion 7-8 times; and are then kept at RT until stimulation. 350 μl of RPMI+P/S were added into 1.2 ml-96-well plate. 10 times concentrated of SEQ ID NO: 172 was prepared in RPMI+P/S (50 μl per well). 50 μl was added into 1.2 ml-96 well plates. 50 μl of whole blood was then added in each well where either medium alone or JNK inhibitor has been previously added. Whole blood was incubated at 37° C., 5% CO2 for 60 min. 50 μl/well of ligands diluted in RPMI+P/S was prepared, corresponding to the final dilution 10 times concentrated. After 60 min of incubation, ligand was added; wells were then mixed by pipetting up and down the blood. Whole blood was incubated for 3 days at 37° C. (wells were mixed by pipetting each well up and down once per day). […] Cytokine were then measured using standard Elisa kits. Results are expressed as pg/ml of supernatant of the measured cytokine. […]

[4] = system: rat whole blood; test: PMA+ionomycin-induced IL-2 release in rat whole blood; assay type: cell-based; settings: 10 μM; three activator concentrations, 4 h
Description: FIG. 17 Dose dependent inhibition of IL-2 release in rat whole blood stimulated with PMA+ionomycin. JNK inhibitor with SEQ ID NO: 172 was added at three different concentrations, namely 1, 3 and 10 μM 1 h before stimulation with PMA+ionomycin. Three doses of activators were added (25/500 ng/mL, 50/750 ng/mL and 50/1000 ng/mL) for 4 h. IL-2 release was assessed in supernatant.
Whole blood is collected from anesthetized rat or human healthy volunteers using a venipuncture connected to a pre-labeled vacuum tube containing sodium citrate. Tubes are gently mixed by inversion 7-8 times; and are then kept at RT until stimulation. JNK inhibitor of SEQ ID NO: 172 is prepared 6 times concentrated in PBS, and 30 μl/well of mix is added into 96-well plate. Whole blood is diluted by 1:2 in PBS and 120 μl of diluted blood is added in each well where either PBS alone or JNK inhibitor of SEQ ID NO: 172 has been previously added. Whole blood is incubated at 37° C.; 85 rpm (Stuart Orbital incubator SI500) for 60 min. Activators (LPS) are the prepared, 30 μl/well of LPS, 6 times concentrated. […] Cytokine (IL-6, IL-2, IFNγ and TNFα) were then measured using standard Elisa kits (e.g. from R&D Systems: DuoSet Elisas; or from BD Biosciences: BD Opteia Set Elisa). Results are expressed as pg/ml of supernatant of the measured cytokine. […]

hJNK3, sequence (P53779 whole entry, looked up): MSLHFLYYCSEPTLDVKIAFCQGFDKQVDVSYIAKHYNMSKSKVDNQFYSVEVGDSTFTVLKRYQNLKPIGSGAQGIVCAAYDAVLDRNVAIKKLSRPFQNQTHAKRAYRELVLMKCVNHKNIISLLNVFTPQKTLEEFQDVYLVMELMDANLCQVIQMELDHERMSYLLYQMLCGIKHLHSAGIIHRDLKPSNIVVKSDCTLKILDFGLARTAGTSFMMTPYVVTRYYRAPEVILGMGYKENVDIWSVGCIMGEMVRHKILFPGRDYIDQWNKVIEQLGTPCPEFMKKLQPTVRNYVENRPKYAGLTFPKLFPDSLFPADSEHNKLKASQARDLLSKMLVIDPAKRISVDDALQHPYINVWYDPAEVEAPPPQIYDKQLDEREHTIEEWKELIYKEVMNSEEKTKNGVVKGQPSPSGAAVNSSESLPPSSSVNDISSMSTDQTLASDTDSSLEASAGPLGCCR

Question: What does the source list for CC(C)C[C@H](NC(=O)[C@H](CC(N)=O)NC(=O)[C@H](CC(C)C)NC(=O)[C@@H](NC(=O)[C@@H](C)NC(=O)[C@@H]1CCCN1C(=O)[C@H](CCCNC(=N)N)NC(=O)[C@@H](CCCCN)NC(=O)[C@@H]1CCCN1C(=O)[C@H](CCCNC(=N)N)NC(=O)[C@@H](CCCNC(=N)N)NC(=O)[C@H](CCCNC(=N)N)NC(=O)[C@H](CCCNC(=N)N)NC(=O)[C@H](CCC(N)=O)NC(=O)[C@@H](CCCNC(=N)N)NC(=O)[C@H](CCCNC(=N)N)NC(=O)[C@H](CCCCN)NC(=O)[C@H](CCCCN)NC(=O)[C@H](N)CCCNC(=N)N)[C@@H](C)O)C(=O)N[C@H](Cc1ccccc1)C(N)=O [SEQ ID NO: 172, rKKRrQRRrRPkRPaTLNLf] (H-[dR]KKR[dR]QRR[dR]RP[dK]RP[dA]TLNL[dF]-NH2; N-terminus assumed)?
Answer: time until completely degraded [1]: 14 days; IC50 [2]: 102 nM; CD3/CD28-induced TNF-α release [3]: did reduce the CD3/CD28-induced TNF-α release in a dose-dependent manner; PMA-iono-induced IL-2 release [4]: did efficiently reduce
